Data taken from patent US10174013B2, “Benzimidazole derivatives as kinase inhibitors” (SELVITA S.A., priority 2012, dated 2019).
Counter-ions that a name gives are not always drawn. Like-named read-outs stand apart in the source and are kept apart here.

Experiments:
Pim-1 = Pim-1 (Homo sapiens (Human), UniProt P11309); assay: ADP-Glo Kinase Assay, Pim-1; assay type: biochemical; conditions: 1 μM compound; for inhibition at 1 µM: read-out: Pim-1 % INH (1 μM)
Method in brief: (§1)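 Compounds were diluted in assay buffer to 1000 nM and incubated with kinase, substrate and ATP at apparent Km. Remaining ATP was depleted, ADP converted to ATP and detected by luciferase; percent inhibition came from normalized luminescence.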

Pim-2 = Pim-2 (Homo sapiens (Human), UniProt Q9P1W9); assay: ADP-Glo Kinase Assay, Pim-2; assay type: biochemical; conditions: 1 μM compound; for inhibition at 1 µM: read-out: Pim-2 % INH (1 μM)
Method in brief: as §1

Pim-3 = Pim-3 (Homo sapiens (Human), UniProt Q86V86); assay: ADP-Glo Kinase Assay, Pim-3; assay type: biochemical; conditions: 1 μM compound; for inhibition at 1 µM: read-out: Pim-3 % INH (1 μM)
Method in brief: as §1

FLT3wt = FLT3wt (Homo sapiens (Human), UniProt P36888); assay: ADP-Glo Kinase Assay, Flt3 wt; assay type: biochemical; conditions: 1 μM compound; for inhibition at 1 µM: read-out: Flt3wt % INH (1 μM)
Method in brief: as §1

CDK2/E = CDK2/E (Homo sapiens (Human), UniProt P24941); assay: ADP-Glo Kinase Assay, CDK2/E; assay type: biochemical; conditions: 1 μM compound; for inhibition at 1 µM: read-out: CDK2/E % INH (1 μM)
Method in brief: as §1

DYRK1 = DYRK1 (Homo sapiens (Human), UniProt Q13627); assay: ADP-Glo Kinase Assay, DYRK1; assay type: biochemical; conditions: 1 μM compound; for inhibition at 1 µM: read-out: DYRK1A % INH (1 μM)
Method in brief: as §1

MV4-11 cells = assay: Growth inhibition, MTS assay, MV4-11; assay type: cell-based, Human; conditions: MTS cell viability, read-out: MV4-11 ED50
HEL92 cells = assay: Growth inhibition, MTS assay, HEL92; assay type: cell-based, Human; conditions: MTS cell viability, read-out: HEL92 ED50
HepG2 cells = assay: Growth inhibition, MTS assay, HepG2; assay type: cell-based, Human; conditions: MTS cell viability, read-out: HepG2 ED50
Jeko-1 cells = assay: Growth inhibition, MTS assay, Jeko-1; assay type: cell-based, Human; conditions: 72 hours, MTS cell viability, read-out: Jeko-1 ED50
Description: (§2) The following cell lines, were obtained and used in tests as outlined below: • Human myelomonocytic, biphenotypic leukemia MV4-11 cells (harboring a Flt3-ITD mutation); • Human Acute Myeloid Leukemia MOLM16 cells; • Human Acute Myeloid Leukemia MOLM13 cells (harboring a Flt3-ITD mutation); • Human Myeloid Leukemia KG-1 cells; • Human erythroleukemia HEL92 cells; • Human mantle cell lymphoma Jeko-1 cells; • Human hepatocellular carcinoma HepG2 cells; and • Human colon adenocarcinoma SW-480 cells.
(§3) The assays were carried out according to the following protocol, which is described as an example for the MV4-11 cells:
(§4) Ten thousand MV4-11 cells were inoculated into each well of a 96-well microplate (manufactured by Corning Corp.) using Iscove's MDM medium (culture medium) containing 10% fetal calf serum (FCS). The same day, a dimethyl sulfoxide (DMSO) solution of each test compound prepared in a concentration of 10 mmol/L was further diluted with DMSO to the desired concentrations (0.1, 0.5, 1, 2.5, 5 and 10 micromol/L), and the diluted solution was added to each well. The individual wells were further cultured in 5% carbon dioxide at 37° C. for 72 hours. […] Briefly, 10 μl MTS (3-(4,5-Dimethyl-2-thiazolyl)-5-(carboxymethoxyphenyl)-2-(4-sulfophenyl)-2H-tetrazolium was added to each well, and culturing was performed in 5% carbon dioxide at 37° C. for 2 hours. After this incubation and using a microplate spectrophotometer (Synergy 2 multi-mode microplate reader (BioTek)), the absorbance of each well was measured at 490 nm. The value for cells not incubated with a test compound was designated as 100%. By comparing these values with the absorbance difference obtained at the well in which each test compound was added, the cell viability (% viability) after treatment with the test compound was calculated.

SW-480 cells = assay: Growth inhibition, MTS assay, SW-480; assay type: cell-based, Human; conditions: 72 hours, MTS cell viability, read-out: SW-480 ED50
Description: as §2, §3, §4

MV4-11 xenograft = MV4-11 xenograft in immunocompromised mice; assay type: in vivo
Description: Several compounds of the present invention have been studied in a xenograft in mice, an in vivo tumor transplantation model used to investigate the factors involved in malignant transformation, invasion and metastasis, as well as to examine response to therapy. For the purpose of acceptance of donor leukemic cells (MV4-11 or MOLM16 cells), immunocompromised mice were used, namely particularly severely compromised immunodeficient mice (NOD/scid, SCID/beige). When tumors developed size of approx. 50-200 mm^3, the compounds as indicated below in Tables 3 and 3a were administered orally every day for 2-3 weeks, in once a day (QD) or twice a day (BID) schedule. During the course of the experiment, the mice were monitored and the following two parameters were measured: the tumor growth inhibition (TGI) factor as a measure of therapeutic efficacy and the body weight change (ΔBW) factor as a measure of possible compound toxicity. The results are depicted in Tables 3 and 3a.
Next, compound 26A was evaluated in a xenograft study of acute myeloid leukemia (MV-4-11), alone or in a combinational treatment with Cytarabine in vivo (Table 3b; FIG. 6). Compound 26A was tested in two doses (50 and 25 mg/kg) and administered twice a day (BID); Cytarabine was administered at dose of 50 mg/kg three times in a week (TIW). During 15 days of compound administration dose-dependent anti-cancer activity of compound 26A (administered alone) was shown. Tumor growth inhibition reached −82% and −77%, respectively.

[1] = MV4-11 xenograft, oral, 150 mg/Kg QD
[2] = MV-4-11 xenograft, Cytarabine 50 mg/Kg TIW

Pim-1, sequence (P11309 whole entry): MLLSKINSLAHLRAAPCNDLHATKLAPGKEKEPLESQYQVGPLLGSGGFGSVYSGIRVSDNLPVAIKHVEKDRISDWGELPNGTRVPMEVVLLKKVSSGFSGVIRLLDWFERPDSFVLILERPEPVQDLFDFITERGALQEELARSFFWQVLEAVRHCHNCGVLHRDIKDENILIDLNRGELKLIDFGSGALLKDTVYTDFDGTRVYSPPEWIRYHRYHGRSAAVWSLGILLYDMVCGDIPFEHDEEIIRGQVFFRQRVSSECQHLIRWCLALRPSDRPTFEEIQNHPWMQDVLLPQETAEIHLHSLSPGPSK
FLT3wt, sequence (P36888 27-993): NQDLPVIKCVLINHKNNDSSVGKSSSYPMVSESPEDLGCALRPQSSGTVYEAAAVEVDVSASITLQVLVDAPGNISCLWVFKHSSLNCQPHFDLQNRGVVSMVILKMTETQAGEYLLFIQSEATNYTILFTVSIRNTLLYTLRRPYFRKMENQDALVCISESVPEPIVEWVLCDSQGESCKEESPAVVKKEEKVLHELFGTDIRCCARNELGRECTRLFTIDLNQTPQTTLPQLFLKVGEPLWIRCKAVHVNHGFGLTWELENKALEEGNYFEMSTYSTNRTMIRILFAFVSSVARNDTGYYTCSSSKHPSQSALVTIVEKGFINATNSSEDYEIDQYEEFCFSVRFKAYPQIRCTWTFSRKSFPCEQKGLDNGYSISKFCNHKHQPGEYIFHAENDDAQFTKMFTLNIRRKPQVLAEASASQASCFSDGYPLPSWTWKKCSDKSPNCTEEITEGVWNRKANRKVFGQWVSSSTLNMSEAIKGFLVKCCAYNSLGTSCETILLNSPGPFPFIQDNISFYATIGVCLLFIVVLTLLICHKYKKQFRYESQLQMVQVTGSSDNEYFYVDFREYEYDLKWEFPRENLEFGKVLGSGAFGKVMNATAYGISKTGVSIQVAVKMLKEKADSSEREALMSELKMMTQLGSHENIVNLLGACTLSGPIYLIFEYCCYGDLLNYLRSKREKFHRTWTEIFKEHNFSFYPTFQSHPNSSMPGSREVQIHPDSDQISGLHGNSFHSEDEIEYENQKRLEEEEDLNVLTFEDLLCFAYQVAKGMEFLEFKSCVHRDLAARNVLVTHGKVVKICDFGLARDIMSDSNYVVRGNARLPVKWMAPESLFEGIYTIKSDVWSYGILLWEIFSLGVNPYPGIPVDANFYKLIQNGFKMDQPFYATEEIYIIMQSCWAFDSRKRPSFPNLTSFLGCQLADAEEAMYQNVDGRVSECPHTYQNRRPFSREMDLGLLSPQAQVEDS
Pim-2, sequence (Q9P1W9 whole entry): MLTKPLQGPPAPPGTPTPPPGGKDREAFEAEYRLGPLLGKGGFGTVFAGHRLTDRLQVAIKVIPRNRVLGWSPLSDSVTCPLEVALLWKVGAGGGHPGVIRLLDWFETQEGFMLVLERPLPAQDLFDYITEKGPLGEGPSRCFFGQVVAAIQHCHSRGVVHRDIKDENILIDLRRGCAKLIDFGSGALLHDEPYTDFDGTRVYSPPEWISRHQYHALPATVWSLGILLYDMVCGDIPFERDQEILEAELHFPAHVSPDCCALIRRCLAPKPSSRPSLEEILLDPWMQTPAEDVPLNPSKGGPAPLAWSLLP

SMILES	inhibition at 1 µM (Pim-1) [%]	inhibition at 1 µM (Pim-2) [%]	inhibition at 1 µM (Pim-3) [%]	inhibition at 1 µM (FLT3wt) [%]	inhibition at 1 µM (CDK2/E) [%]	inhibition at 1 µM (DYRK1) [%]	IC50 (MV4-11 cells; Homo sapiens, MV4-11, 72 h) [µM]	IC50 (HepG2 cells; Homo sapiens, HepG2, 72 h) [µM]	IC50 (SW-480 cells; Homo sapiens, SW480) [µM]	IC50 (HEL92 cells; Homo sapiens, 72 h) [µM]	IC50 (Jeko-1 cells; Homo sapiens, JeKo-1) [µM]	further results
CC(C)n1c(N2CC[C@H](N)C2)nc2c([N+](=O)[O-])c(Br)c(Br)cc21 [Example 1AZ]	–	–	–	–	–	–	–	–	–	–	–	Pim-1 % INH (1 μM) (Pim-1): >95%; Pim-2 % INH (1 μM) (Pim-2): 70%; Pim-3 % INH (1 μM) (Pim-3): 94%; Flt3wt % INH (1 μM) (FLT3wt): 48%; CDK2/E % INH (1 μM) (CDK2/E): 38%; DYRK1A % INH (1 μM) (DYRK1): 72%; IC50 (MV4-11 cells; 72 hours): 1.1 µM; IC50 (HEL92 cells; 72 hours): 2.6 µM; IC50 (HepG2 cells; 72 hours): 2.2 µM; TGI (tumor growth inhibition) (MV4-11 xenograft; [1]): 76%; ΔBW (body weight change) (MV4-11 xenograft; [1]): −0.2%; TGI (tumor growth inhibition) (MV4-11 xenograft; MV4-11 xenograft, oral, doses as in Table 3): more than 70%
CCn1c(N2CCCC2CN)nc2c([N+](=O)[O-])c(Br)c(Br)cc21 (stereo not shown) [Example 1Z]	67	–	92	< 5	< 5	–	1.7	6.4	6.9	–	5.6	–
NCCCNc1nc2c([N+](=O)[O-])c(Br)c(Br)cc2n1CC1CC1 [Example 1AB]	–	–	–	–	–	–	–	–	–	–	–	Pim-1 % INH (1 μM) (Pim-1): >95%; Pim-2 % INH (1 μM) (Pim-2): 46%; Pim-3 % INH (1 μM) (Pim-3): 87%; Flt3wt % INH (1 μM) (FLT3wt): <5%; CDK2/E % INH (1 μM) (CDK2/E): <5%; IC50 (MV4-11 cells; 72 hours): 2.8 µM; IC50 (HEL92 cells; 72 hours): 5.8 µM; IC50 (HepG2 cells; 72 hours): 2.3 µM; IC50 (Jeko-1 cells): 1.2 µM; IC50 (SW-480 cells): 3.2 µM
Nc1ccn([C@@H]2O[C@H](CO)[C@@H](O)[C@@H]2O)c(=O)n1 [Cytarabine, cytarabine, reference compound]	–	–	–	–	–	–	–	–	–	–	–	TGI (tumor growth inhibition) (MV4-11 xenograft; [2]): 60%; ΔBW (body weight change) (MV4-11 xenograft; [2]): −2%
CC(C)Cn1c(N2CCCC(N)C2)nc2c([N+](=O)[O-])c(Br)c(Br)cc21 (stereo not shown) [Example 1V]	> 95	–	> 95	< 5	< 5	11	0.7	0.9	3.1	5.6	2.9	–
CCCn1c(N2CCCC(N)C2)nc2c([N+](=O)[O-])c(Br)c(Br)cc21 (stereo not shown) [Example 1U]	> 95	37	> 95	9	< 5	35	0.6	1.5	3.3	4.7	1.8	–
CC(C)n1c(NCCCN)nc2c([N+](=O)[O-])c(Br)c(Br)cc21 [Example 1L]	> 95	58	> 95	21	32	47	1.2	1.6	3.3	5.7	–	–
CCn1c(NC2CCC(N)CC2)nc2c([N+](=O)[O-])c(Br)c(Br)cc21 (stereo not shown) [Example 1H]	–	25	38	–	–	–	–	–	3.4	–	–	Pim-1 % INH (1 μM) (Pim-1): 58%; Flt3wt % INH (1 μM) (FLT3wt): <5%; CDK2/E % INH (1 μM) (CDK2/E): <5%; DYRK1A % INH (1 μM) (DYRK1): 9%; IC50 (MV4-11 cells; 72 hours): 2.3 µM; IC50 (HEL92 cells; 72 hours): 7.6 µM; IC50 (HepG2 cells; 72 hours): 2.7 µM

The next lines start with results.

inhibition at 1 µM (Pim-1) [%]	inhibition at 1 µM (Pim-2) [%]	inhibition at 1 µM (Pim-3) [%]	inhibition at 1 µM (FLT3wt) [%]	inhibition at 1 µM (CDK2/E) [%]	inhibition at 1 µM (DYRK1) [%]	IC50 (MV4-11 cells; Homo sapiens, MV4-11, 72 h) [µM]	IC50 (HepG2 cells; Homo sapiens, HepG2, 72 h) [µM]	IC50 (SW-480 cells; Homo sapiens, SW480) [µM]	SMILES	IC50 (HEL92 cells; Homo sapiens, 72 h) [µM]	IC50 (Jeko-1 cells; Homo sapiens, JeKo-1) [µM]	further results
87	42	71	37	5	50	0.5	1.6	3.2	O=[N+]([O-])c1c(Br)c(Br)cc2c1nc(N1CCNCC1)n2C1CC1 [Example 21A, 5,6-dibromo-1-cyclopropyl-4-nitro-2-(piperazin-1-yl)-1H-1,3-benzodiazole trifluoroacetate]	1.9	0.6	–
79	63	56	25	15	72	5.5	0.9	1.8	CC(C)=CCn1c(N2CCNCC2)nc2c([N+](=O)[O-])c(Br)c(Br)cc21 [Example 2E, 5,6-dibromo-1-(3-methylbut-2-en-1-yl)-4-nitro-2-(piperazin-1-yl)-1H-1,3-benzodiazole hydrochloride]	5.4	1.6	–
–	–	–	–	–	–	7.9	> 10	6	CCn1c(NC2CCC(O)CC2)nc2c([N+](=O)[O-])c(Br)c(Br)cc21 (stereo not shown) [Example 22B, 4-[(5,6-dibromo-1-ethyl-4-nitro-1H-1,3-benzodiazol-2-yl)amino]cyclohexan-1-ol]	8.8	3	–
